Reference: patent US7179479B1, “Mosquito repellent isolated from Foeniculum vulgare fruit” (Naturobiotech Co., Ltd., priority 2000, dated 2007)
Where “and” joins values, the source holds several entries; their conditions need not be identical. Equal entries are not always repeated. Where two headings read alike, the source gives them in different places.

Key:
rat [1] = details: oral administration; cited from earlier work
rat [2] = details: epidermal; cited from earlier work
Aedes aegypti [3] = assay: Patch test of mosquito repellency (landings on treated gauze); format: in vivo; details: for Mosquito repellency of chromatography fractions (active / inert): patch test of Test 1, fractions of the hexane portion
Description: Aedes aegypti were used in the tests of mosquito repellency in the experiments of the present invention. They were provided from the National Institute of Health in Korea and were selected from indoor breeding insects that were not exposed to insecticides or other drugs. Larvae were reared in 30×35×10 cm cages. […] The pupae were transferred to a paper-cup using a spoide and then the paper-cup was moved to a cage being a structure (35×35×35 cm) made from wire. […] For patch test, 35×35×35 cm screen wire cage were used. Tests were conducted on nulliparous females 7-10 days old. The methanol extract and 4 types of portions prepared in the Example 1 and 100 μl of ethanol were applied to a piece of gauze (50 mm-diameter). After drying in the air for 2 minutes, the gauze was put on a rubber glove with a 50 mm-diameter hole punched in it and it was exposed in a cage (35×35×35 cm containing 60 mosquitoes). Because the gauze on the rubber glove was 5 mm away from the skin, mosquitoes would probe through the gauze in an attempt to feed but could not reach the back of the hand. Repellent activity was measured by the number of mosquitoes landing on the gauze for 5 minutes. An untreated gauze (95% ethanol only) was also exposed to mosquitoes in the same manner and considered as a control. The degree of repellency was expressed in terms of percent repellency calculated according to the following equation. [formula] Also, in order to identify mosquito repelling activity, it was compared with synthetic repellent DEET by recording the number of landings.

Aedes aegypti [4] = assay: Skin test of mosquito repellency (bites on treated skin); format: in vivo
Method: In order to exactly confirm mosquito repellent activity, the compounds containing repellent activity were further examined by a skin test directly against skin. The cage was covered with a 35×35×35 cm mail net structure. Tests were conducted against nulliparous females 7–10 days old. Both compounds, in 100 μl of ethanol, were applied to a rubber glove surface with a 50 mm diameter hole punched on the hand. After drying in the air for 1 minute, skin was exposed for 5 minutes in a cage containing 60 mosquitoes. Repellent activity was measured by the number of mosquitoes biting the skin. The control treated only with 95% ethanol was also exposed to mosquitoes in the same manner. The degree of repellency was expressed in terms of percent repellency calculated according to the following Equation 2. [formula]

[5] = skin treated with 300 ug/cm^2 DEET, cited from earlier work
[6] = patch test, dose 0.004 mg/cm^2 (so in the source)

Compound | LD50 (rat [1]) | LD50 (rat [2]) | Repellency (average ± standard deviation, %) (Aedes aegypti [3]; [6]) | Repellency (average ± standard deviation, %) (Aedes aegypti [3]; patch test, dose 0.005 mg/cm^2) | Repellency (average ± standard deviation, %) (Aedes aegypti [3]; patch test, dose 0.005 mg/cm^2, listed as fenchone) | Repellency (average ± standard deviation, %) (Aedes aegypti [3]; patch test, dose 0.01 mg/cm^2) | Repellency (average ± standard deviation, %) (Aedes aegypti [3]; patch test, dose 0.01 mg/cm^2, listed as fenchone) | Repellency (average ± standard deviation, %) (Aedes aegypti [3]; patch test, dose 0.02 mg/cm^2) | Repellency (average ± standard deviation, %) (Aedes aegypti [4]; dose 0.04 mg/cm^2) | Repellency (average ± standard deviation, %) (Aedes aegypti [4]; dose 0.1 mg/cm^2) | Repellency (average ± standard deviation, %) (Aedes aegypti [4]; dose 0.2 mg/cm^2) | Repellency (average ± standard deviation, %) (Aedes aegypti [4]; dose 0.4 mg/cm^2) | Repellency (average ± standard deviation, %) (Aedes aegypti [4]; dose 0.4 mg/cm^2, listed as fenchone) | Mosquito repellency of chromatography fractions (active / inert) (Aedes aegypti [3]) | Repellency (%) (Aedes aegypti [3]; patch test, dose 0.1 mg/cm^2, A. aegypti females, 5 min exposure) | skin penetration ratio ([5]; after 1 hour) | skin penetration ratio ([5]; after 12 hours)
CC1CCC(C(C)(C)O)C(O)C1 (stereo not shown) [PMD, p-menthan-3,8-diol] | 2,408 mg/kg | > 2,000 mg/kg | – | – | – | – | – | – | – | – | – | – | – | – | – | – | –
CC1(C)C(=O)[C@@]2(C)CC[C@@H]1C2 [Fenchone, (+)-fenchone] | – | – | 100a % | 82.1 ± 0.7c % | 82.1% | 93.9 ± 0.6b % | potent repellency comparable with that of DEET | 100a % | 76.2 ± 0.2c % | 91.7 ± 0.9b % | 100a % | 100a % | perfect repellent activity | – | – | – | –
(+)-fenchone | – | – | – | – | – | – | – | – | – | – | – | – | – | potent active principles | – | – | –
CCCCCCCC/C=C/CCCCCCCC(=O)O [E-9-octadecenoic acid] | – | – | 100a % | 73.4% and 73.4 ± 2.3c % | – | – | – | 98.6 ± 0.9a % | – | – | 52.3 ± 0.9% | 80.4% and 80.4 ± 0.2% | – | potent active principles | – | – | –
CCN(CC)C(=O)c1cccc(C)c1 [DEET, N,N-diethyl-m-toluamide, reference compound] | – | – | 100a % | 84.6% and 84.6 ± 1.3c % | – | 96.4 ± 0.5b % | – | 100a % | 98.4 ± 0.5b % | 100a % | 100a % | 100a % | – | – | > 80% | 30% | 36%
